Reference: ChEMBL document CHEMBL4507280 (2021)

Legend:
[1] = target: Ribosomal protein S6 kinase alpha-6 (Homo sapiens) (UniProt Q9UK32); settings: Compound concentration 1000.0 nM
[2] = target: NUAK family SNF1-like kinase 1 (Homo sapiens) (UniProt O60285); settings: Compound concentration 1000.0 nM
[3] = system: eIF-2-alpha kinase GCN2 (Homo sapiens), Q9P2K8 [S808G]; settings: Compound concentration 1000.0 nM
[4] = target: Misshapen-like kinase 1 (Homo sapiens) (UniProt Q8N4C8); settings: Compound concentration 1000.0 nM
[5] = target: Ephrin type-B receptor 3 (Homo sapiens) (UniProt P54753); settings: Compound concentration 1000.0 nM
[6] = target: Tyrosine-protein kinase ZAP-70 (Homo sapiens) (UniProt P43403); settings: Compound concentration 1000.0 nM
[7] = target: Wee1-like protein kinase (Homo sapiens) (UniProt P30291); settings: Compound concentration 1000.0 nM
[8] = system: Mast/stem cell growth factor receptor Kit (Homo sapiens), P10721 [V559D,V654A]; settings: Compound concentration 1000.0 nM
[9] = target: Tyrosine-protein kinase receptor UFO (Homo sapiens) (UniProt P30530); settings: Compound concentration 1000.0 nM
Tyrosine-protein kinase receptor UFO (Homo sapiens), sequence (P30530 whole entry): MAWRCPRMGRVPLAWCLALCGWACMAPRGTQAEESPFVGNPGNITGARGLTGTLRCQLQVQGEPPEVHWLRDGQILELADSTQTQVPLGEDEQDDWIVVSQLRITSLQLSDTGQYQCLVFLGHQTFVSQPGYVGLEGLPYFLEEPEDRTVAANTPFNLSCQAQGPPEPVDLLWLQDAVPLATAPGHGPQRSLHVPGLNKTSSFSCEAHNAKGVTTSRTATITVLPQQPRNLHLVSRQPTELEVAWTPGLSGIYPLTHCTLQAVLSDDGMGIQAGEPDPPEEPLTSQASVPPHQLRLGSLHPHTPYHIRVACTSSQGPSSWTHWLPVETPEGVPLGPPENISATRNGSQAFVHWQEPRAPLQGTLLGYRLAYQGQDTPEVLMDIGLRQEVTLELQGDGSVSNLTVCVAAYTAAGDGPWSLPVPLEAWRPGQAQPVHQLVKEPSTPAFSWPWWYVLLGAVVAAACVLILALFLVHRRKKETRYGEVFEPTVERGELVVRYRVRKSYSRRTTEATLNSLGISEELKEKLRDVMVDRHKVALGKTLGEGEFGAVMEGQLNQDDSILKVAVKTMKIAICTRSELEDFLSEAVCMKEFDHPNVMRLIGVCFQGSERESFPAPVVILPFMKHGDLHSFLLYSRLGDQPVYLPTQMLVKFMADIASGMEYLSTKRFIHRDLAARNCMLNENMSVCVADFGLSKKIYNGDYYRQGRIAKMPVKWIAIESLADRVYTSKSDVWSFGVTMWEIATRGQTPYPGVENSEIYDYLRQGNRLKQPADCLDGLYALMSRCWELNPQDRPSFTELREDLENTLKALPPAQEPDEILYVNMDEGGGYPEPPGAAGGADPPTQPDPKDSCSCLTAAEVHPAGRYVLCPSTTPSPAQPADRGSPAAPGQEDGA

[10] = target: Serine/threonine-protein kinase 26 (Homo sapiens) (UniProt Q9P289); settings: Compound concentration 1000.0 nM
Serine/threonine-protein kinase 26 (Homo sapiens), sequence (Q9P289 2-416 limits assumed): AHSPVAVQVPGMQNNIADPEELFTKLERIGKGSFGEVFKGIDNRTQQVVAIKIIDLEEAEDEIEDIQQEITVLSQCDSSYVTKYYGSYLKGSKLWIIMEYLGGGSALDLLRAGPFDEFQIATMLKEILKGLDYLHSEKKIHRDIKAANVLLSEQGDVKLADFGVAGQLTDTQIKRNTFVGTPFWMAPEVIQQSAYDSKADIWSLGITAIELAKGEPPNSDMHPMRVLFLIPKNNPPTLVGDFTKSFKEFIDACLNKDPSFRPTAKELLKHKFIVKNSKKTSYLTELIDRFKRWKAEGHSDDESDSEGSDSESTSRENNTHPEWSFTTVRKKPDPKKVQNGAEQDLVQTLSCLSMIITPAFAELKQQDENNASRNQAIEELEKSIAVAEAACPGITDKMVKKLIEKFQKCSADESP

[11] = target: Serine/threonine-protein kinase Nek5 (Homo sapiens) (UniProt Q6P3R8); settings: Compound concentration 1000.0 nM
[12] = target: cAMP-dependent protein kinase catalytic subunit alpha (Homo sapiens) (UniProt P17612); settings: Compound concentration 1000.0 nM
[13] = target: Activin receptor type-2B (Homo sapiens) (UniProt Q13705); settings: Compound concentration 1000.0 nM
[14] = target: 5-hydroxytryptamine receptor 1E (Homo sapiens) (UniProt P28566); settings: Compound concentration 10.0 uM
5-hydroxytryptamine receptor 1E (Homo sapiens), sequence (P28566 whole entry): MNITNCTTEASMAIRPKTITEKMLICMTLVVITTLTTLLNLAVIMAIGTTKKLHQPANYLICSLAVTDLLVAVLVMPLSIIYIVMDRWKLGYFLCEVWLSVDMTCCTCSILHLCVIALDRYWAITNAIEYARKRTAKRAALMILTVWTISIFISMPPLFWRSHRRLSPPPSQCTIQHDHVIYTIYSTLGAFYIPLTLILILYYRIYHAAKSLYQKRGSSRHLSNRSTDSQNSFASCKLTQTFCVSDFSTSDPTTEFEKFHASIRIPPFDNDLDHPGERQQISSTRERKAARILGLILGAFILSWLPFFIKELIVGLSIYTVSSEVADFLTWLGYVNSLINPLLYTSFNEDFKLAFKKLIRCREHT

[15] = target: Serine/threonine-protein kinase WNK1 (Homo sapiens) (UniProt Q9H4A3); settings: Compound concentration 1000.0 nM
[16] = target: Tyrosine-protein kinase SYK (Homo sapiens) (UniProt P43405); settings: Compound concentration 1000.0 nM
[17] = target: Casein kinase II subunit alpha' (Homo sapiens) (UniProt P19784); settings: Compound concentration 1000.0 nM
[18] = system: Tyrosine-protein kinase ABL1 (Homo sapiens), P00519 [M351T]; settings: Compound concentration 1000.0 nM
[19] = target: Mitogen-activated protein kinase 15 (Homo sapiens) (UniProt Q8TD08); settings: Compound concentration 1000.0 nM
Mitogen-activated protein kinase 15 (Homo sapiens), sequence (Q8TD08 whole entry): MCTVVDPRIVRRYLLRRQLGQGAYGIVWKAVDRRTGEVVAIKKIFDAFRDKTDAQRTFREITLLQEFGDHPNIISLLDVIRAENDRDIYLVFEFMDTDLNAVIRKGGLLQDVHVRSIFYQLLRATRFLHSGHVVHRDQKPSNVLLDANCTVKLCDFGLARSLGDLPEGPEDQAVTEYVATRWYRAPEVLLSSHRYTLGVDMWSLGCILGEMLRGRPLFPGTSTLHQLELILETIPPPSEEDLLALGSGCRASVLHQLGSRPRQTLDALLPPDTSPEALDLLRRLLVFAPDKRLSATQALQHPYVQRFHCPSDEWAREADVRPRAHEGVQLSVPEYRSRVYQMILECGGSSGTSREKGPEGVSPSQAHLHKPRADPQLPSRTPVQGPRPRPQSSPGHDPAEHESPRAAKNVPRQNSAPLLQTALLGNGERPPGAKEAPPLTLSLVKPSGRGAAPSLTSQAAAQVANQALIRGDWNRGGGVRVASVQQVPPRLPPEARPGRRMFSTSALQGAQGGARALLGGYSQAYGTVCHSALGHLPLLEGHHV

[20] = target: Calcium/calmodulin-dependent protein kinase type 1D (Homo sapiens) (UniProt Q8IU85); settings: Compound concentration 1000.0 nM
Calcium/calmodulin-dependent protein kinase type 1D (Homo sapiens), sequence (Q8IU85 whole entry, looked up): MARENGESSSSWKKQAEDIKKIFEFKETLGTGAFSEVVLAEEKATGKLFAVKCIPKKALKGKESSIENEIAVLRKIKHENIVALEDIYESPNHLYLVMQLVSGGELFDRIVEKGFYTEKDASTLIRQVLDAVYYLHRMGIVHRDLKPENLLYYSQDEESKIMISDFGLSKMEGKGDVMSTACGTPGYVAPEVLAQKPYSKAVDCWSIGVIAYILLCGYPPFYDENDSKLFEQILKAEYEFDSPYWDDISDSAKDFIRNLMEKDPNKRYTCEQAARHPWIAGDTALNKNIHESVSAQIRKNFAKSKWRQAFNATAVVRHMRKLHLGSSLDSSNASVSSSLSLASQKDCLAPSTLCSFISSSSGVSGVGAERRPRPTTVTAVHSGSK

[21] = target: Cyclin-dependent kinase 2 homolog (Plasmodium falciparum (isolate 3D7)) (UniProt P61075); settings: Compound concentration 1000.0 nM
[22] = target: Ribosomal protein S6 kinase alpha-1 (Homo sapiens) (UniProt Q15418); settings: Compound concentration 1000.0 nM
[23] = target: 5-hydroxytryptamine receptor 6 (Homo sapiens) (UniProt P50406); settings: Compound concentration 10.0 uM
[24] = target: Myosin light chain kinase (Homo sapiens) (UniProt Q32MK0); settings: Compound concentration 1000.0 nM
[25] = target: Membrane-associated tyrosine- and threonine-specific cdc2-inhibitory kinase (Homo sapiens) (UniProt Q99640); settings: Compound concentration 1000.0 nM
[26] = target: Serine/threonine-protein kinase PLK1 (Homo sapiens) (UniProt P53350); settings: Compound concentration 1000.0 nM
Serine/threonine-protein kinase PLK1 (Homo sapiens), sequence (P53350 whole entry): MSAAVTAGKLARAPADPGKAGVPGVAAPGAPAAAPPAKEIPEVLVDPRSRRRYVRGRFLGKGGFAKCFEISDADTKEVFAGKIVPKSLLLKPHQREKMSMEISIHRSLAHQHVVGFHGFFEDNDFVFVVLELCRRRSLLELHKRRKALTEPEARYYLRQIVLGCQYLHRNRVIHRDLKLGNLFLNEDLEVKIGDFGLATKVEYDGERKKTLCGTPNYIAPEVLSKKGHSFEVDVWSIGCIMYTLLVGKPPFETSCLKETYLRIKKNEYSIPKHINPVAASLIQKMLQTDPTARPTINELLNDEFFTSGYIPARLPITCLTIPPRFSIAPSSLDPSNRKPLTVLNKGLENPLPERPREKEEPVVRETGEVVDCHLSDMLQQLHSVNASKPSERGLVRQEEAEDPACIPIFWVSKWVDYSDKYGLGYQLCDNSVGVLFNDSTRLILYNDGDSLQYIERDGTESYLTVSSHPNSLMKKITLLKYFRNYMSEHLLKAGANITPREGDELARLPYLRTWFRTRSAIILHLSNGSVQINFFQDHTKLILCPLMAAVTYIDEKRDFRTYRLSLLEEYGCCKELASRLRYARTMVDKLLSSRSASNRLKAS

[27] = target: Cyclin-dependent kinase 9 (Homo sapiens) (UniProt P50750); settings: Compound concentration 1000.0 nM
Cyclin-dependent kinase 9 (Homo sapiens), sequence (P50750 whole entry): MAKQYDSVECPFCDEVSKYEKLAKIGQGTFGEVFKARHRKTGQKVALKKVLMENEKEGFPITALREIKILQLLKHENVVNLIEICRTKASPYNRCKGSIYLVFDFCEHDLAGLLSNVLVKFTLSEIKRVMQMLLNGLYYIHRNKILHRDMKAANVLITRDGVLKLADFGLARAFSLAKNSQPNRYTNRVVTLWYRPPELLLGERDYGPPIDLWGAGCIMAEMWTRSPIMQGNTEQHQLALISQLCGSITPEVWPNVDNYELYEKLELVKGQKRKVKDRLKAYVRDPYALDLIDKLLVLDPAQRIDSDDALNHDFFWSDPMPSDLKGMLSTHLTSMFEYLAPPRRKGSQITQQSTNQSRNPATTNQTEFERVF

[28] = target: Dual specificity mitogen-activated protein kinase kinase 3 (Homo sapiens) (UniProt P46734); settings: Compound concentration 1000.0 nM
[29] = system: Serine/threonine-protein kinase B-raf (Homo sapiens), P15056 [V600E]; settings: Compound concentration 1000.0 nM
[30] = system: Epidermal growth factor receptor (Homo sapiens), P00533 [L858R]; settings: Compound concentration 1000.0 nM
[31] = target: Serine/threonine-protein kinase Chk1 (Homo sapiens) (UniProt O14757); settings: Compound concentration 1000.0 nM
[32] = target: Beta-adrenergic receptor kinase 1 (Homo sapiens) (UniProt P25098); settings: Compound concentration 1000.0 nM
[33] = target: Rho-associated protein kinase 1 (Homo sapiens) (UniProt Q13464); settings: Compound concentration 1000.0 nM
[34] = target: Serine/threonine-protein kinase Nek6 (Homo sapiens) (UniProt Q9HC98); settings: Compound concentration 1000.0 nM
[35] = target: Fibroblast growth factor receptor 2 (Homo sapiens) (UniProt P21802); settings: Compound concentration 1000.0 nM
[36] = target: Aurora kinase B (Homo sapiens) (UniProt Q96GD4); settings: Compound concentration 1000.0 nM
[37] = target: Serine/threonine-protein kinase ULK2 (Homo sapiens) (UniProt Q8IYT8); settings: Compound concentration 1000.0 nM
[38] = system: Mast/stem cell growth factor receptor Kit (Homo sapiens), P10721 [L576P]; settings: Compound concentration 1000.0 nM
Mast/stem cell growth factor receptor Kit (Homo sapiens), P10721 [L576P], sequence (P10721 whole entry L576P): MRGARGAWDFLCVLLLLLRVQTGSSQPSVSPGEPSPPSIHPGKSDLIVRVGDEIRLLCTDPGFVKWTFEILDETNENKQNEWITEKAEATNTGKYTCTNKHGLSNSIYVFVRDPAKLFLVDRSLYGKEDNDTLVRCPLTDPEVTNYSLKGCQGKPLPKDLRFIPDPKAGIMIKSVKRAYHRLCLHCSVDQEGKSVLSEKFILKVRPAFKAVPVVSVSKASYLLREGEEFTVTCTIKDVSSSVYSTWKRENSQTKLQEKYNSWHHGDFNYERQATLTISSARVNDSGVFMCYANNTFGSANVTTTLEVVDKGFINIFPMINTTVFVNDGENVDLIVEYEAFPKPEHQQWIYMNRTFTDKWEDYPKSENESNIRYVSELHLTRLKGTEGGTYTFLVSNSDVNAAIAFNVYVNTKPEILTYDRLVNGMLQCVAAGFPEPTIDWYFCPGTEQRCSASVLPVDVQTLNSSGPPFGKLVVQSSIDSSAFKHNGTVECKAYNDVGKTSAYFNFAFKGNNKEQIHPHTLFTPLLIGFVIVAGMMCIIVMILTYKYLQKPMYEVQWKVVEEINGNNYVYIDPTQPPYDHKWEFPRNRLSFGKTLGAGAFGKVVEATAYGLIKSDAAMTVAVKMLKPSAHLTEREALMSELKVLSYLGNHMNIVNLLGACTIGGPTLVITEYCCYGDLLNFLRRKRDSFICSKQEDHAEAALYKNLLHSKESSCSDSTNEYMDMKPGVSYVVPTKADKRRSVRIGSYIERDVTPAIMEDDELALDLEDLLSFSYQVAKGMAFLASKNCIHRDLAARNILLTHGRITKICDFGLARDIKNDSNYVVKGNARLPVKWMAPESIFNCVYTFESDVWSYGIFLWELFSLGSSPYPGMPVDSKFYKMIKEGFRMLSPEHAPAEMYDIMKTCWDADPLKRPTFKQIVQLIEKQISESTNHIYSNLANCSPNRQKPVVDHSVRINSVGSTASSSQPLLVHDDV

[39] = target: Cyclin-dependent kinase-like 1 (Homo sapiens) (UniProt Q00532); settings: Compound concentration 1000.0 nM
Cyclin-dependent kinase-like 1 (Homo sapiens), sequence (Q00532 whole entry): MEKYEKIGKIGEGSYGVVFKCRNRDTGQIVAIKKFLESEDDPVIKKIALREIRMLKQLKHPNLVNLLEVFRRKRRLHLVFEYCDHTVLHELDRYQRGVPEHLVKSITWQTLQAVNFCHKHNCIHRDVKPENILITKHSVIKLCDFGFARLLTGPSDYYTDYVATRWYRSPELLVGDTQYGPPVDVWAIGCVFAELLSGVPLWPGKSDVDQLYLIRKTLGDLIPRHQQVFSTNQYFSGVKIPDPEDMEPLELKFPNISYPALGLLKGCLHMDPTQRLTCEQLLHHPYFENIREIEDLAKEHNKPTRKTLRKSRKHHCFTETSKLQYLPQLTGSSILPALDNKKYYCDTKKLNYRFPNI

[40] = target: Mitogen-activated protein kinase 11 (Homo sapiens) (UniProt Q15759); settings: Compound concentration 1000.0 nM
[41] = target: Ephrin type-A receptor 5 (Homo sapiens) (UniProt P54756); settings: Compound concentration 1000.0 nM
[42] = system: Epidermal growth factor receptor (Homo sapiens), P00533 [G719S]; settings: Compound concentration 1000.0 nM
[43] = target: Serine/threonine-protein kinase PRP4 homolog (Homo sapiens) (UniProt Q13523); settings: Compound concentration 1000.0 nM
[44] = target: Activin receptor type-1-like (Homo sapiens) (UniProt P37023); settings: Compound concentration 1000.0 nM
[45] = system: Mast/stem cell growth factor receptor Kit (Homo sapiens), P10721 [A829P]; settings: Compound concentration 1000.0 nM

CCC(=O)N[C@H]1CC[C@@H](C(=O)N(C)c2ccc(-c3nc4ccccc4o3)cc2)C1 [BI 99179]
inactive: residual activity [1] 82% | residual activity [2] 100% | residual activity [3] 100% | residual activity [4] 89% | residual activity [5] 76% | residual activity [6] 82% | residual activity [7] 100% | residual activity [8] 89% | residual activity [9] 87% | residual activity [10] 76% | residual activity [11] 100% | residual activity [12] 100% | residual activity [13] 100% | inhibition [14] -3.14% | residual activity [15] 100% | residual activity [16] 100% | residual activity [17] 100% | residual activity [18] 94% | residual activity [19] 100% | residual activity [20] 100% | residual activity [21] 80% | residual activity [22] 100% | inhibition [23] 3.86% | residual activity [24] 97% | residual activity [25] 99% | residual activity [26] 97% | residual activity [27] 95% | residual activity [28] 77% | residual activity [29] 96% | residual activity [30] 97% | residual activity [31] 100% | residual activity [32] 66% | residual activity [33] 100% | residual activity [34] 85% | residual activity [35] 91% | residual activity [36] 83% | residual activity [37] 75% | residual activity [38] 61% | residual activity [39] 95% | residual activity [40] 82% | residual activity [41] 78% | residual activity [42] 100% | residual activity [43] 99% | residual activity [44] 77% | residual activity [45] 57%

CCC(=O)N[C@@H]1CC[C@H](C(=O)N(C)c2ccc(-c3nc4ccccc4o3)cc2)C1 [BI 99990]
inactive: residual activity [1] 84% | residual activity [2] 100% | residual activity [3] 54% | residual activity [4] 96% | residual activity [5] 100% | residual activity [6] 100% | residual activity [7] 99% | residual activity [8] 100% | residual activity [9] 100% | residual activity [10] 77% | residual activity [11] 100% | residual activity [12] 100% | residual activity [13] 96% | inhibition [14] -5.68% | residual activity [15] 100% | residual activity [16] 100% | residual activity [17] 100% | residual activity [18] 100% | residual activity [19] 100% | residual activity [20] 100% | residual activity [21] 100% | residual activity [22] 100% | inhibition [23] 10.1% | residual activity [24] 100% | residual activity [25] 100% | residual activity [26] 95% | residual activity [27] 100% | residual activity [28] 91% | residual activity [29] 100% | residual activity [30] 100% | residual activity [31] 100% | residual activity [32] 100% | residual activity [33] 100% | residual activity [34] 99% | residual activity [35] 86% | residual activity [36] 96% | residual activity [37] 100% | residual activity [38] 100% | residual activity [39] 90% | residual activity [40] 83% | residual activity [41] 100% | residual activity [42] 96% | residual activity [43] 77% | residual activity [44] 100% | residual activity [45] 100%
